Our source for the inhibition in vivo and melting point values is patent publication US7923461B2, “TNF-α production inhibitors” (Santen Pharmaceutical Co., Ltd., priority 2000, dated 2011).

The subject of data set [1] is TNF-α production. The experiment in a line: Inhibitory effects on TNF-α production induced by lipopolysaccharide (LPS) stimulation, in vivo test. On the set-up: species or system rat. The following applies: Rattus norvegicus, 2 h, female rats, plasma TNF-α (ELISA) two hours after LPS, read-out: Inhibition rate (%) of TNF-α production; for inhibition in vivo at 10 mg/kg: oral administration of 10 mg/kg immediately after LPS to footpad; for inhibition in vivo at 3 mg/kg: oral administration of 3 mg/kg immediately after LPS to footpad. The method, then:
Inhibitory effects on TNF-α production induced by lipopolysaccharide (LPS) stimulation were studied by in vivo tests according to the method of Tsuji et al. (Inflamm res. 46 (1997) 193-198).
Female rats (five per group), body weight of about 200 g, about eight weeks old, were used as test animals. LPS from Salmonella was dissolved in physiological saline to prepare an LPS solution (1 mg/ml). Each test substance was dissolved or uniformly suspended in a 1% methylcellulose solution to give test substance-preparation liquids.
The above-mentioned LPS solution (0.5 ml/kg) was administered to a footpad of the rat. Immediately after the LPS administration, the test substance-preparation liquid (containing 10 mg/kg or 3 mg/kg test substance) was orally administered. Two hours after the LPS administration, blood was collected from abdominal aorta and was centrifuged at 4° C. and 3000 rpm for ten minutes. TNF-α levels in the obtained plasma were measured with a rat TNF-α-specific ELISA kit. TNF-α was not observed in the plasma with respect to an LPS-non-administered group (control).
Inhibition rates of TNF-α production of the test substances were determined by the following equation. Inhibition rate (%)=[(A−B)/A]×100 A: TNF-α level in plasma of test substance-nonadministered group B: TNF-α level in plasma of test substance-administered group (Results)

The molecule `CCCCCNC(=O)N(CCCc1ccncc1)CCC12CC3CC(CC(C3)C1)C2` [Compound No. 1-66, 1-[2-(1-Adamantyl)ethyl]-3-pentyl-1-[3-(4-pyridyl)propyl]urea] returned a melting point of 47 to 50 °C. Besides, in data set [1], the inhibition in vivo at 10 mg/kg was 79.4%.

With `CC(C)N(CCC12CC3CC(CC(C3)C1)C2)C(=O)NCCCc1ccncc1` [Compound No. 1-68, 1-[2-(1-Adamantyl)ethyl]-1-isopropyl-3-[3-(4-pyridyl)propyl]urea], the melting point was in the range of 132 to 134 °C. Moreover, in data set [1], the inhibition in vivo at 10 mg/kg came out at 79%.

`O=C(NCCCc1ccncc1)N(CCC12CC3CC(CC(C3)C1)C2)C1CCCC1` [Compound No. 1-70, 1-[2-(1-Adamantyl)ethyl]-1-cyclopentyl-3-[3-(4-pyridyl)propyl]urea] returned a melting point of 135.5 to 137.5 °C. In addition, the inhibition in vivo at 10 mg/kg in data set [1] was 87.9%.

Consider `CCCCCN(CCC12CC3CC(CC(C3)C1)C2)C(=O)NCCCc1cccnc1` [Compound No. 1-84, 1-[2-(1-Adamantyl)ethyl]-1-pentyl-3-[3-(3-pyridyl)propyl]urea], for which the melting point was 99.9 to 105.2 °C. Besides, the inhibition in vivo at 3 mg/kg in data set [1] is 35.5%.

As for `CCCCCN(CCC12CC3CC(CC(C3)C1)C2)C(=O)NC(C)CCc1ccncc1` (stereo not shown) [Compound No. 1-137, 1-[2-(1-Adamantyl)ethyl]-3-[1-methyl-3-(4-pyridyl)propyl]-1-pentylurea], the melting point fell in the range of 128.5 to 129 °C. Moreover, in data set [1], the inhibition in vivo at 3 mg/kg came to 82.1%.
